{"source": "patent US20190382320A1", "about": "“ENHANCED STABILITY OF UREASE INHIBITOR-CONTAINING COMPOSITIONS” (Koch Agronomic Services, LLC, priority 2017, published 2019)", "key": {"[1]": {"experiment": "Hydrolysis of NBPT adduct-containing compositions at varying pH (OPPTS 835.2120), LC-MS monitoring", "type": "physicochemical", "settings": "pH=4, 50° C.", "protocol": "NBPT adduct-containing compositions were prepared by a method similar to that described in Example 1, with the exception that acetonitrile, rather than N-methylpyrrolidone was used as the solvent and, after <20 wt. % of free NBPT remained (based on UPLC testing), the acetonitrile was evaporated. As such, the NBPT in the “adduct-containing composition” subjected to hydrolysis according to the method of Example 2 is initially partially in adduct form and partially in free form (i.e., the composition includes both NBPT-containing adduct and free NBPT).\nThe NBPT adduct-containing compositions were hydrolyzed in accordance with OPPTS 835.2120 guidelines (https://www.regulations.gov/document?D=EPA-HQ-OPPT-2009-0152-0009), which are incorporated herein by reference. Specifically, samples comprising the NBPT adducts were subjected to various pH conditions (pH=4, pH=7, and pH=9) to evaluate the hydrolysis profiles at these varying pH values at 50° C. for 5 days. Hydrolysis of the NBPT adduct-containing compositions (by evaluating total NBPT adduct concentration as well as free NBPT concentration (i.e., NBPT in non-adduct form)) was monitored at hourly-to-daily intervals by liquid chromatography-mass spectroscopy (LC-MS), with secondary detection via ultraviolet (UV) detection at 200 nm. […]"}, "[2]": {"experiment": "NBPT hydrolysis over time in acetonitrile", "type": "physicochemical", "settings": "in acetonitrile (no hydrolysis conditions)", "description": "FIGS. 4A and 4B present data on a study of NBPT hydrolysis over time in acetonitrile. As shown, little change is observed over the course of the study."}}, "data": [{"smiles": "CCCCNP(N)(N)=S", "note": "[free NBPT, N-(n-butyl) thiophosphoric triamide]", "values": [{"measurement": "amount of free NBPT in the composition", "setting": "[1]; day 3", "result": "minimal"}, {"measurement": "amount of free NBPT in the composition", "setting": "[1]; day 4", "result": "completely gone"}, {"measurement": "change of overall amount over the course of the study", "setting": "[2]", "result": "not actively degraded"}]}]}
